The values below come from EP0655506B1 (priority 1994, dated 1995).

What all share (experiment): Gel electrophoresis-based rate of incorporation of dideoxynucleotides relative to deoxynucleotides, 1:1 ratio of dNTPs to ddNTPs (Example 6)
One test has as its target T1, Taq DNA polymerase F667Y (Thermus aquaticus, UniProt P19821, F667Y).
T1 construct: to the gene that produces the full length Taq DNA polymerase; made in house
The class given is biochemical. Particulars: for D, discrimination factor (ratio of the use of a specific dNTP to the use of the comparable ddNTP at equal concentrations): 100 µM 4dNTPs and 100 µM of one ddNTP, 5 mM MgCl2, 70 °C; for Incorporation Rate Ratios (dN/ddN): absolute ratios obtained in Example 6 (1:1 dNTPs to ddNTPs). The text has this: (§1) The primary application of this test is to determine the absolute ratio of incorporation of a ddNMP to a dNMP for a DNA polymerase that efficiently incorporates dideoxynucleotides, such as T7 DNA polymerase, E. coli DNA polymerase I mutant F762Y or Taq DNA polymerase mutant F667Y. It can also indicate the level of discrimination against ddNTPs of any DNA polymerase; however, for DNA polymerases that discriminate strongly against ddNTPs, such as T7 DNA polymerase mutant Y526F, E. coli DNA polymerase I or Taq DNA polymerase, higher ratios of ddNTP to dNTP are necessary to determine precisely their level of discrimination, which is described in detail in Example 7.
(§2) DNA synthesis reactions are carried out on the ^32P-end labeled 40 mer-M 13 mGP1-2 DNA template complex prepared as described in Example 3. Reaction conditions are used that are optimum for the DNA polymerase being tested with regard to buffer, pH, salts, and temperature of the reaction. A concentration of DNA polymerase is chosen whereby most of the primers are extended in a 10 min reaction and are terminated by the incorporation of a dideoxynucleotide. The reaction mixture contains 100 µM 4dNTPs and 100 µM of one of the four ddNTPs.
(§3) We used this test to compare the ability of six DNA polymerases to incorporate each of the four ddNMPs. The DNA polymerases tested were (1) T7 DNA polymerase with a 28 amino acid deletion in the exonuclease domain and complexed in a one-to-one ratio with thioredoxin (Tabor and Richardson 264 J. Biol. Chem. 6447, 1989) (referred to here as "T7 DNA polymerase"), (2) The large fragment of E. coli DNA polymerase I, commonly called the Klenow fragment (referred to here as "E. coli DNA polymerase I"), (3) Unmodified DNA polymerase from Thermus aquaticus (referred to here as "Taq DNA polymerase"), (4) T7 DNA polymerase as described above in which the tyrosine at residue 526 has been changed to a phenylalanine (referred to here as "T7 DNA polymerase Y526F"), (5) E. coli DNA polymerase I as described above in which the phenylalanine at residue 762 has been changed to a tyrosine (referred to here as "E. coli DNA polymerase I F762Y"), and (6) Taq DNA polymerase as described above in which the phenylalanine at residue 667 has been changed to a tyrosine (referred to here as "Taq DNA polymerase F667Y").
(§4) The reaction mixtures also contained 10 ng of yeast inorganic pyrophosphatase to inhibit pyrophosphorolysis that could otherwise increase the apparent discrimination by the DNA polymerase (Tabor and Richardson 265 j. Biol. Chem. 8322, 1990). The reactions were initiated by the addition of 2 µl of each DNA polymerase, diluted in 20 mM TrisHCl, pH 7.5, 10 mM 2-mercaptoethanol and 0.05% bovine serum albumin to a concentration of approximately 0.025 units/µl. The concentration of each DNA polymerase was sufficient to extend most of the labeled primers by more than 500 nucleotides in the absence of ddNTPs in a 15 min reaction. The reaction mixtures were incubated for 15 min at either 37 °C (T7 DNA polymerase, T7 DNA polymerase Y526F, E. coli DNA polymerase I, and E. coli DNA polymerase F762Y) or 70 °C (Taq DNA polymerase and Taq DNA polymerase F667Y). The reactions were terminated by the addition of 10 µl 90% formamide, 20 mM EDTA, 0.05% bromphenol blue. Each sample was heated at 90°C for 2 min immediately prior to loading 6 µl of each sample onto a gel consisting of 8% polyacrylamide, 0.4% N,N'-methylenebisacrylamide, 7 M urea in 100 mM Trisborate, pH 8.3, 1 mM EDTA. Electrophoresis was at 2000 Volts for 90 min (until the bromphenol blue had just run off the bottom of the gel). After electrophoresis, the gel was dried under vacuum, and autoradiographed. After autoradiography, the distribution of radioactively labeled fragments was determined by Phosphorimager analysis (Molecular Dynamics). […]

Test [1] addresses T2, E. coli DNA polymerase I (Klenow fragment) F762Y (Escherichia coli, UniProt P00582, F762Y).
T2 construct: The large fragment of E. coli DNA polymerase I, commonly called the Klenow fragment; made in house; T7 RNA polymerase promoter; purified by ion exchange chromatography
The class given is biochemical. Particulars: for D, discrimination factor (ratio of the use of a specific dNTP to the use of the comparable ddNTP at equal concentrations): 100 µM 4dNTPs and 100 µM of one ddNTP, 5 mM MgCl2, 37 °C; for Incorporation Rate Ratios (dN/ddN): absolute ratios obtained in Example 6 (1:1 dNTPs to ddNTPs).
Text: as §1, §2, §3, §4

In test [2] the target is T3, T7 DNA polymerase (28 amino acid deletion in the exonuclease domain, complexed with thioredoxin), tyrosine at residue 526 (WT) (Escherichia phage T7, UniProt P00581, DEL118-145).
T3 construct: made in house; host or cells: strain that produces E. coli thioredoxin, lac promoter
T3 sequence (P00581 other isoform, or with tags, fused parts or gaps DEL118-145): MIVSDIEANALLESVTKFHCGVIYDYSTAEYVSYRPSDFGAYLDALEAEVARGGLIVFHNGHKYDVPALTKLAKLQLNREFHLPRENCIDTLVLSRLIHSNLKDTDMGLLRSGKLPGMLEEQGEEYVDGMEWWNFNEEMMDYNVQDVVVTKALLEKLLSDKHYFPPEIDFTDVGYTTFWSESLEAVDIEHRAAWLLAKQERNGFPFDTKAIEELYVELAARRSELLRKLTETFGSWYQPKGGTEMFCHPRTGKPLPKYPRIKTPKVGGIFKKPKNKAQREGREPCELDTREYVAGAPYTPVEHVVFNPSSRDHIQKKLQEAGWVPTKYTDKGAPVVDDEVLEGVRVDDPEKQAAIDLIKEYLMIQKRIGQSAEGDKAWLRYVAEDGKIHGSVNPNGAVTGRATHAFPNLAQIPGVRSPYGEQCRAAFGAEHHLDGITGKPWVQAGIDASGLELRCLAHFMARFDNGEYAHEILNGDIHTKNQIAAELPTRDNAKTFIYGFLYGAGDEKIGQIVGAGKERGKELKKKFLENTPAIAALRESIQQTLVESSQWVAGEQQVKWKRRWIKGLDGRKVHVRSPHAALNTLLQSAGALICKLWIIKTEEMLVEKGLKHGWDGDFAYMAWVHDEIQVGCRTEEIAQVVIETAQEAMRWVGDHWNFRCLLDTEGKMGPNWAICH
T3 sequence (P0AA25 2-109, stated change not applied, further chain): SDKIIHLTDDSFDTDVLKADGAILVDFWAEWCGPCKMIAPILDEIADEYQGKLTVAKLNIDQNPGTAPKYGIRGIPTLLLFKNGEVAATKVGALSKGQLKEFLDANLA
The class given is biochemical, bacteriophage T7. Particulars: for D, discrimination factor (ratio of the use of a specific dNTP to the use of the comparable ddNTP at equal concentrations): 100 µM 4dNTPs and 100 µM of one ddNTP, 5 mM MgCl2, 37 °C; for Incorporation Rate Ratios (dN/ddN): stated to be the absolute ratios obtained in Example 6 (1:1 dNTPs to ddNTPs).
Text: as §1, §2, §3, §4

T2 sequence (P00582 324-928 F762Y): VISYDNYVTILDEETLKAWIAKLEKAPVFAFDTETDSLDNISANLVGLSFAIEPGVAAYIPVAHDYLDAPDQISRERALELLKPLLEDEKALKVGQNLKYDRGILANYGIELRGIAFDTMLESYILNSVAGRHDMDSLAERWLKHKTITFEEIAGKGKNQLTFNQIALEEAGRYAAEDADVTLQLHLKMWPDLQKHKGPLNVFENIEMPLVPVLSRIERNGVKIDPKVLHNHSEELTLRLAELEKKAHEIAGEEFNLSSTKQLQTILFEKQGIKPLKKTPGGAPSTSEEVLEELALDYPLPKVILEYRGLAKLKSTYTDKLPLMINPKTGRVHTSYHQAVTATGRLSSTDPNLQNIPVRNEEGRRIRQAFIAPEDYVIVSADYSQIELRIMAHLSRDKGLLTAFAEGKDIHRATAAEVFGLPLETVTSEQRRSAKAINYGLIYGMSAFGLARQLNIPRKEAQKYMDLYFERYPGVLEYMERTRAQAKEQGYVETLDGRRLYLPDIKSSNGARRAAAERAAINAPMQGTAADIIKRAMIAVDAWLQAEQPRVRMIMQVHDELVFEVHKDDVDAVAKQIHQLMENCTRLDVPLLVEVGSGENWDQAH
T1 sequence (P19821 whole entry F667Y): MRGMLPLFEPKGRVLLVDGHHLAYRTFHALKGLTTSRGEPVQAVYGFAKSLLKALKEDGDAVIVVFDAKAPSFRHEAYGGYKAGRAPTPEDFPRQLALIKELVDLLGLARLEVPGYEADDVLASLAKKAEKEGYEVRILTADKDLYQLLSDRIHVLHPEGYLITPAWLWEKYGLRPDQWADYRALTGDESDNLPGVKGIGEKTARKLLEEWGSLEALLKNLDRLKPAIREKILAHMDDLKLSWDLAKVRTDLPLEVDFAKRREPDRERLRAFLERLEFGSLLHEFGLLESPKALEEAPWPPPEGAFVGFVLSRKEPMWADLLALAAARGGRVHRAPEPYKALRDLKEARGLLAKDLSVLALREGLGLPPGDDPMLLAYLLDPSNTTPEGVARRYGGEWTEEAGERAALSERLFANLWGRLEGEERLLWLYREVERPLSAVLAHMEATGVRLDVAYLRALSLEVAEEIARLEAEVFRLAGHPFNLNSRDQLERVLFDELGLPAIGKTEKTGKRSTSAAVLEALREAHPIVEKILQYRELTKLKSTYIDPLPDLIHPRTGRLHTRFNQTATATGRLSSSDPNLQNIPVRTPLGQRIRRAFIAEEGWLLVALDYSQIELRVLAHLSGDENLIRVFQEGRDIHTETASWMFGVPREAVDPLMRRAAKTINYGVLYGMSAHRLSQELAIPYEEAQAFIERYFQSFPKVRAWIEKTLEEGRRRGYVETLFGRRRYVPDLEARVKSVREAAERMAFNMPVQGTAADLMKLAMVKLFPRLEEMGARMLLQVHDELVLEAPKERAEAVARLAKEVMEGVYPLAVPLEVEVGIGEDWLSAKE

For `Nc1ccn([C@H]2CC[C@@H](COP(=O)(O)OP(=O)(O)OP(=O)(O)O)O2)c(=O)n1` [ddCTP], the “D, discrimination factor (ratio of the use of a specific dNTP to the use of the comparable ddNTP at equal concentrations)” value is reported as 0.32 on Taq DNA polymerase F667Y, 0.75 in test [1] and 2.7 in test [2]. The entries for the “Incorporation Rate Ratios (dN/ddN)” value (on Taq DNA polymerase F667Y; in test [1]; in test [2]) were 0.32, 0.75 and 3.7, respectively.
`Nc1nc2c(ncn2[C@H]2CC[C@@H](COP(=O)(O)OP(=O)(O)OP(=O)(O)O)O2)c(=O)[nH]1` [ddGTP]: the results for the “D, discrimination factor (ratio of the use of a specific dNTP to the use of the comparable ddNTP at equal concentrations)” value (at Taq DNA polymerase F667Y; in test [1]; in test [2]) were 0.45, 0.56 and 2.2, respectively. The “Incorporation Rate Ratios (dN/ddN)” value at Taq DNA polymerase F667Y amounted to 0.45; in test [1] it was 0.56; in test [2] it was 3.2.
For the compound `Cc1cn([C@H]2CC[C@@H](COP(=O)(O)OP(=O)(O)OP(=O)(O)O)O2)c(=O)[nH]c1=O` [ddTTP], the results for the “D, discrimination factor (ratio of the use of a specific dNTP to the use of the comparable ddNTP at equal concentrations)” value (at Taq DNA polymerase F667Y; in test [1]; in test [2]) were 0.56, 0.54 and 1.8, respectively. Besides, the “Incorporation Rate Ratios (dN/ddN)” value on Taq DNA polymerase F667Y was 0.56; in test [1], 0.54; in test [2], 2.8.
Take `Nc1ncnc2c1ncn2[C@H]1CC[C@@H](COP(=O)(O)OP(=O)(O)OP(=O)(O)O)O1` [ddATP]: the “D, discrimination factor (ratio of the use of a specific dNTP to the use of the comparable ddNTP at equal concentrations)” value came out at 0.59 at Taq DNA polymerase F667Y, 0.72 in test [1] and 2.3 in test [2]. The “Incorporation Rate Ratios (dN/ddN)” value on Taq DNA polymerase F667Y is reported as 0.59; in test [1], 0.72; in test [2] it was 3.3.
